Data reported in publication PMC9295256 (Journal of medicinal chemistry, 2021).
Square brackets hold non-standard residues; d marks the D form. Peptide text beside a SMILES is read from it. * marks the point of attachment. Boc = CC(C)(C)OC(=O)*

biological target: recombinant rat Nln (Rattus norvegicus, UniProt P42676); experiment: Nln activation, continuous quenched fluorescence substrate; format: biochemical; conditions: not given
Sequence (P42676 38-704): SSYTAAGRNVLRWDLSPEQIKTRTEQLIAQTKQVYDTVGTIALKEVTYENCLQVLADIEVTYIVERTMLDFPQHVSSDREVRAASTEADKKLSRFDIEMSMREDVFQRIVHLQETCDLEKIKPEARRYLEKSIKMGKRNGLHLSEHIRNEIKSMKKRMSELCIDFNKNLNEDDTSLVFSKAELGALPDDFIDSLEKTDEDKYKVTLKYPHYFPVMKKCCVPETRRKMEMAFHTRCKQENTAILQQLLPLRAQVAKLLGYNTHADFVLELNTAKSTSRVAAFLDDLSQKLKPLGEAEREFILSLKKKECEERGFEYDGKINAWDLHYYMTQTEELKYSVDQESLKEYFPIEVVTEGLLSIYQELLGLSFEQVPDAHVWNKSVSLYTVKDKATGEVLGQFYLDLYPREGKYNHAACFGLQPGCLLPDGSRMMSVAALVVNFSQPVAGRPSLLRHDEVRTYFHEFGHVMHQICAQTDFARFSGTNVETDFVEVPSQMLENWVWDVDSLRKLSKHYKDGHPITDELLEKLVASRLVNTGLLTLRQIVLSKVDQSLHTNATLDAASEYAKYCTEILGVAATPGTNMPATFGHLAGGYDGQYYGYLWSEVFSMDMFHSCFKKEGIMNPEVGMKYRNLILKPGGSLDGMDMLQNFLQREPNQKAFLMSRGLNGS

**Q.** With `N[C@@H](Cc1cnc[nH]1)C(=O)N[C@@H](Cc1ccc(O)cc1)C(=O)O` [Compound 1, His–Tyr] (H-His-Tyr-OH) as the compound, how does the “Amax, maximum % activation achieved (95% CI)” value (“Amax … (95% CI)” below) read?
**A.** 465.2 (440.2 to 492.3) %

**Q.** With `N[C@@H](Cc1c[nH]cn1)C(=O)N[C@@H](Cc1c[nH]cn1)C(=O)O` [Compound 2, His–His] as the compound, how does the “Amax … (95% CI)” value read?
**A.** 498.1 (481 to 516.5) %

**Q.** Which “Amax … (95% CI)” value does the source give for `N[C@@H](Cc1cnc[nH]1)C(=O)N[C@@H](Cc1ccccc1)C(=O)O` [Compound 3, His–Phe] (H-His-Phe-OH) here?
**A.** 442.3 (418.8 to 467.6) %

**Q.** With `N[C@@H](Cc1ccc(O)cc1)C(=O)N[C@H](Cc1c[nH]cn1)C(=O)O` [Compound 4a, H-Tyr-His-OH] as the compound, how does the “Nln activation, result in words” value read?
**A.** complete amelioration of Nln activation

**Q.** With `CC(C)(C)OC(=O)N[C@@H](Cc1ccc(O)cc1)C(=O)N[C@H](Cc1ccccc1)C(=O)O` [Compound 4b] (Boc-Tyr-[dF]-OH) as the compound, how does the “Nln activation, result in words” value read?
**A.** inactive

**Q.** For `N[C@@H](Cc1c[nH]cn1)C(=O)NCCc1ccc(C(F)(F)F)cc1` [Compound 4k, (S)-2-Amino-3-(1H-imidazol-4-yl)-N-(4-(trifluoromethyl)-phenethyl)propanamide], which “Amax … (95% CI)” value is on record?
**A.** 299.4 (283.9 to 316.2) %

**Q.** How did the “Amax … (95% CI)” value turn out when `N[C@H](Cc1c[nH]cn1)C(=O)NCCc1ccc(C(F)(F)F)cc1` [Compound 4l, (R)-2-Amino-3-(1H-imidazol-4-yl)-N-(4-(trifluoromethyl)-phenethyl)propanamide] was run?
**A.** 330.1 (313.9 to 347.7) %

**Q.** Which “Amax … (95% CI)” value does the source give for `N[C@@H](Cc1c[nH]cn1)C(=O)NCCc1ccc([N+](=O)[O-])cc1` [Compound 4o, (S)-2-Amino-3-(1H-imidazol-4-yl)-N-(4-nitrophenethyl)-propanamide] here?
**A.** 282.4 (266.5 to 299.5) %

**Q.** `N[C@H](Cc1c[nH]cn1)C(=O)NCCc1ccc([N+](=O)[O-])cc1` [Compound 4p, (R)-2-Amino-3-(1H-imidazol-4-yl)-N-(4-nitrophenethyl)-propanamide] was tested. Which “Amax … (95% CI)” value did it give?
**A.** 267.5 (250.1 to 287.1) %

**Q.** With `N[C@@H](Cc1c[nH]cn1)C(=O)NCCc1ccc(-c2ccccc2)cc1` [Compound 4q, (S)-N-(2-([1,1′-Biphenyl]-4-yl)ethyl)-2-amino-3-(1H-imidazol-4-yl)propanamide] as the compound, how does the “Amax … (95% CI)” value read?
**A.** 258.2 (244 to 273.4) %

**Q.** With `N[C@H](Cc1c[nH]cn1)C(=O)NCCc1ccc(-c2ccccc2)cc1` [Compound 4r, (R)-N-(2-([1,1′-biphenyl]-4-yl)ethyl)-2-amino-3-(1H-imidazol-4-yl)propanamide] as the compound, how does the “Amax … (95% CI)” value read?
**A.** 269.7 (256.8 to 283.4) %

**Q.** `N[C@@H](Cc1c[nH]cn1)C(=O)NCc1ccccc1` [Compound 5a, (S)-2-Amino-N-benzyl-3-(1H-imidazol-4-yl)propanamide] was tested. Which “Amax … (95% CI)” value did it give?
**A.** 152.2 (137.3 to 171.5) %

**Q.** How did the “Amax … (95% CI)” value turn out when `COc1ccc(CNC(=O)[C@@H](N)Cc2c[nH]cn2)cc1` [Compound 5b, (S)-2-Amino-3-(1H-3l4-imidazol-4-yl)-N-(4-methoxybenzyl)-propanamide] was run?
**A.** 428.8 (373 to 523.5) %

**Q.** `COc1ccc(CNC(=O)[C@H](N)Cc2cnc[nH]2)cc1` [Compound 5c, (R)-2-Amino-3-(1H-imidazol-4-yl)-N-(4-methoxybenzyl)-propanamide] was tested. Which “Amax … (95% CI)” value did it give?
**A.** 703.5 (588.9 to 915.6) %

**Q.** For `COc1ccccc1CNC(=O)[C@@H](N)Cc1c[nH]cn1` [Compound 5d, (S)-2-Amino-3-(1H-3l4-imidazol-4-yl)-N-(2-methoxybenzyl)-propanamide], which “Amax … (95% CI)” value is on record?
**A.** 385.8 (363.8 to 410.5) %

**Q.** How did the “Amax … (95% CI)” value turn out when `COc1ccccc1CNC(=O)[C@H](N)Cc1c[nH]cn1` [Compound 5e, (R)-2-Amino-3-(1H-3l4-imidazol-4-yl)-N-(2-methoxybenzyl)-propanamide] was run?
**A.** 324.9 (304 to 349) %

**Q.** For `COc1cccc(CNC(=O)[C@@H](N)Cc2c[nH]cn2)c1` [Compound 5f, (S)-2-Amino-3-(1H-3l4-imidazol-4-yl)-N-(3-methoxybenzyl)-propanamide], which “Amax … (95% CI)” value is on record?
**A.** 327.5 (309.7 to 348.2) %

**Q.** For `COc1cccc(CNC(=O)[C@H](N)Cc2cnc[nH]2)c1` [Compound 5g, (R)-2-Amino-3-(1H-3l4-imidazol-4-yl)-N-(3-methoxybenzyl)-propanamide], which “Amax … (95% CI)” value is on record?
**A.** 477.1 (444 to 516) %

**Q.** For `N[C@H](Cc1c[nH]cn1)C(=O)NCc1ccc(C(F)(F)F)cc1` [Compound 5i, (R)-2-Amino-3-(1H-imidazol-4-yl)-N-(4-(trifluoromethyl)benzyl)-propanamide], which “Amax … (95% CI)” value is on record?
**A.** 319.1 (296.3 to 344.3) %

**Q.** Which “Amax … (95% CI)” value does the source give for `N[C@H](Cc1c[nH]cn1)C(=O)NCc1ccccc1C(F)(F)F` [Compound 5k, (R)-2-Amino-3-(1H-imidazol-4-yl)-N-(2-(trifluoromethyl)benzyl)-propanamide] here?
**A.** 345.8 (317.5 to 378.3) %

**Q.** With `N[C@H](Cc1c[nH]cn1)C(=O)NCc1cccc(C(F)(F)F)c1` [Compound 5m, (R)-2-Amino-3-(1H-imidazol-4-yl)-N-(3-(trifluoromethyl)benzyl)-propanamide] as the compound, how does the “Amax … (95% CI)” value read?
**A.** 282 (258.4 to 309.1) %

**Q.** `N[C@@H](Cc1c[nH]cn1)C(=O)NCc1ccc(F)cc1` [Compound 5n, (S)-2-Amino-N-(4-fluorobenzyl)-3-(1H-imidazol-4-yl)-propanamide] was tested. Which “Amax … (95% CI)” value did it give?
**A.** 293 (276.5–310.7) %

**Q.** How did the “Amax … (95% CI)” value turn out when `N[C@H](Cc1c[nH]cn1)C(=O)NCc1ccc(F)cc1` [Compound 5o, (R)-2-Amino-N-(4-fluorobenzyl)-3-(1H-imidazol-4-yl)-propanamide] was run?
**A.** 320.5 (299.7 to 343.9) %

**Q.** Which “Amax … (95% CI)” value does the source give for `N[C@@H](Cc1c[nH]cn1)C(=O)NCc1ccc(OC(F)(F)F)cc1` [Compound 5p, (S)-2-Amino-3-(1H-imidazol-4-yl)-N-(4-(trifluoromethoxy)-benzyl)propanamide] here?
**A.** 310 (287.2 to 336.1) %

**Q.** `N[C@H](Cc1c[nH]cn1)C(=O)NCc1ccc(OC(F)(F)F)cc1` [Compound 5q, (R)-2-Amino-3-(1H-imidazol-4-yl)-N-(4-(trifluoromethoxy)-benzyl)propanamide] was tested. Which “Amax … (95% CI)” value did it give?
**A.** 337.1 (312 to 364.9) %

**Q.** For `N[C@@H](Cc1c[nH]cn1)C(=O)NCc1ccc(SC(F)(F)F)cc1` [Compound 5r, (S)-2-Amino-3-(1H-imidazol-4-yl)-N-(4-((trifluoromethyl)thio)-benzyl)propanamide], which “Amax … (95% CI)” value is on record?
**A.** 287.5 (277.4 to 298.4) %

**Q.** Which “Amax … (95% CI)” value does the source give for `N[C@H](Cc1c[nH]cn1)C(=O)NCc1ccc(SC(F)(F)F)cc1` [Compound 5s, (R)-2-Amino-3-(1H-imidazol-4-yl)-N-(4-((trifluoromethyl)thio)-benzyl)propanamide] here?
**A.** 251.5 (233.7 to 271.3) %

**Q.** For `N[C@@H](Cc1c[nH]cn1)C(=O)NCCc1ccc2ccccc2c1` [Compound 9f, (S)-2-Amino-3-(1H-imidazol-4-yl)-N-(2-(naphthalen-2-yl)ethyl)-propanamide], which “Amax … (95% CI)” value is on record?
**A.** 323.7 (310.3 to 337.9) %

same assay, conditions: 100% = normal enzyme turnover; mean of n = 4, 95% CI in parentheses

**Q.** Which “Amax … (95% CI)” value does the source give for `NC(Cc1c[nH]cn1)C(=O)NCCc1c[nH]c2ccccc12` (racemic) [(rac)-9a, (rac)-N-(2-(1H-Indol-3-yl)ethyl)-2-amino-3-(1H-imidazol-4-yl)-propanamide] here?
**A.** 197 (177.5 to 222.8) %

**Q.** With `CC(C)(C)OC(=O)N[C@@H](Cc1ccc(O)cc1)C(=O)N[C@H](Cc1ccccc1)C(=O)O` [Compound 4b] (Boc-Tyr-[dF]-OH) as the compound, how does the “Amax … (95% CI)” value read?
**A.** Inactive

**Q.** Which “Amax … (95% CI)” value does the source give for `N[C@@H](Cc1c[nH]cn1)C(=O)NCCc1ccccc1` [Compound 4c, (S)-2-Amino-3-(1H-imidazol-4-yl)-N-phenethylpropanamide] here?
**A.** 337.2 (302 to 378.6) %

**Q.** `N[C@H](Cc1c[nH]cn1)C(=O)NCCc1ccccc1` [Compound 4d, (R)-2-Amino-3-(1H-imidazol-4-yl)-N-phenethylpropanamide] was tested. Which “Amax … (95% CI)” value did it give?
**A.** 294.6 (278.0 to 313) %

**Q.** With `COc1ccc(CCNC(=O)[C@@H](N)Cc2c[nH]cn2)cc1` [Compound 4e, (S)-2-Amino-3-(1H-imidazol-4-yl)-N-(4-methoxyphenethyl)-propanamide] as the compound, how does the “Amax … (95% CI)” value read?
**A.** 339.4 (314.2 to 369.3) %

**Q.** Which “Amax … (95% CI)” value does the source give for `COc1ccc(CCNC(=O)[C@H](N)Cc2c[nH]cn2)cc1` [Compound 4f, (R)-2-Amino-3-(1H-imidazol-4-yl)-N-(4-methoxyphenethyl)-propanamide] here?
**A.** 378.3 (350.5 to 411.9) %

**Q.** With `COc1cccc(CCNC(=O)[C@H](N)Cc2c[nH]cn2)c1` [Compound 4j, (R)-2-Amino-3-(1H-imidazol-4-yl)-N-(3-methoxyphenethyl)-propanamide] as the compound, how does the “Amax … (95% CI)” value read?
**A.** 255.3 (230.5 to 284.8) %

**Q.** With `N[C@@H](Cc1c[nH]cn1)C(=O)Nc1ccccc1` [Compound 6a, (S)-2-Amino-3-(1H-imidazol-4-yl)-N-phenylpropanamide] as the compound, how does the “Amax … (95% CI)” value read?
**A.** 466.6 (402.3 to 579.7) %

**Q.** With `N[C@H](Cc1c[nH]cn1)C(=O)Nc1ccccc1` [Compound 6b, (R)-2-Amino-3-(1H-imidazol-4-yl)-N-phenylpropanamide] as the compound, how does the “Amax … (95% CI)” value read?
**A.** 440.3 (414.9 to 470.4) %

**Q.** How did the “Amax … (95% CI)” value turn out when `N[C@@H](Cc1c[nH]cn1)C(=O)NCCCc1ccccc1` [Compound 7a, (S)-2-Amino-3-(1H-imidazol-4-yl)-N-(3-phenylpropyl)-propanamide] was run?
**A.** 288.1 (273.6 to 303.8) %

**Q.** `N[C@H](Cc1c[nH]cn1)C(=O)NCCCc1ccccc1` [Compound 7b, (R)-2-Amino-3-(1H-imidazol-4-yl)-N-(3-phenylpropyl)-propanamide] was tested. Which “Amax … (95% CI)” value did it give?
**A.** 281.8 (269.9 to 294.5) %

**Q.** Which “Amax … (95% CI)” value does the source give for `N[C@@H](Cc1c[nH]cn1)C(=O)NCCCCc1ccccc1` [Compound 8a, (S)-2-Amino-3-(1H-imidazol-4-yl)-N-(4-phenylbutyl)-propanamide] here?
**A.** 328 (309 to 351) %

**Q.** `N[C@H](Cc1c[nH]cn1)C(=O)NCCCCc1ccccc1` [Compound 8b, (R)-2-Amino-3-(1H-imidazol-4-yl)-N-(4-phenylbutyl)-propanamide] was tested. Which “Amax … (95% CI)” value did it give?
**A.** 233.8 (215.9 to 254.8) %

**Q.** For `N[C@H](Cc1c[nH]cn1)C(=O)NCCc1c[nH]c2ccccc12` [Compound 9e, (R)-N-(2-(1H-Indol-3-yl)ethyl)-2-amino-3-(1H-imidazol-4-yl)-propanamide], which “Amax … (95% CI)” value is on record?
**A.** 132 (122.5 to 143.6) %

same assay, conditions: 100% = normal enzyme turnover; mean of n = 4, 95% CI in parentheses; listed as D-9e

**Q.** `N[C@H](Cc1c[nH]cn1)C(=O)NCCc1c[nH]c2ccccc12` [Compound 9e, (R)-N-(2-(1H-Indol-3-yl)ethyl)-2-amino-3-(1H-imidazol-4-yl)-propanamide] was tested. Which “Amax … (95% CI)” value did it give?
**A.** 132%

same assay, conditions: recombinant rat Nln, QFS 15 μM, 37 °C; mean of n = 4, 95% CI in parentheses

**Q.** `CC(C)(C)OC(=O)N[C@@H](Cc1ccc(O)cc1)C(=O)N[C@H](Cc1ccccc1)C(=O)O` [Compound 4b] (Boc-Tyr-[dF]-OH) was tested. Which “A50, half maximal activation concentration (95% CI)” value did it give?
**A.** Inactive
